In the NIST ThermoML archive (doi:10.1021/je0498661):
± gives the expanded uncertainty stated by the source.

Conditions: 101.33 kPa, Liquid, Hot wire method

thermal conductivity (273.15 K) [W/m/K] | thermal conductivity (293.15 K) [W/m/K] | thermal conductivity (313.15 K) [W/m/K] | thermal conductivity (333.15 K) [W/m/K] | thermal conductivity (288.15 K) [W/m/K] | thermal conductivity (303.15 K) [W/m/K] | thermal conductivity (318.15 K) [W/m/K] | SMILES
0.145 ± 0.003 | 0.14 ± 0.003 | 0.137 ± 0.003 | 0.13 ± 0.003 | – | – | – | CCSCC [3-thiapentane]
0.207 ± 0.004 | 0.195 ± 0.004 | 0.183 ± 0.004 | – | – | – | – | CC#N [acetonitrile]
0.141 ± 0.003 | 0.137 ± 0.003 | 0.131 ± 0.003 | 0.126 ± 0.003 | – | – | – | C1CCCNCC1 [azacycloheptane]
0.12 ± 0.003 | – | – | 0.11 ± 0.002 | 0.117 ± 0.002 | 0.115 ± 0.002 | 0.112 ± 0.002 | C1CCSC1 [tetrahydrothiophene]

SMILES | thermal conductivity (273.15 K) [W/m/K] | thermal conductivity (293.15 K) [W/m/K] | thermal conductivity (313.15 K) [W/m/K] | thermal conductivity (333.15 K) [W/m/K] | thermal conductivity (288.15 K) [W/m/K] | thermal conductivity (303.15 K) [W/m/K] | thermal conductivity (318.15 K) [W/m/K]
CN(C)CCN(C)C [N,N,N',N'-tetramethyl-1,2-diaminoethane] | 0.154 ± 0.003 | 0.15 ± 0.003 | 0.144 ± 0.003 | 0.135 ± 0.003 | – | – | –
